US8216786B2, “Genetic polymorphisms associated with cardiovascular diseases, methods of detection and uses thereof” (Celera Corporation, priority 2008, dated 2012)

System: individuals who have previously had an MI
Assay: CARE trial: effect of pravastatin vs placebo on coronary events (endpt1, rmi) by SNP genotype subgroup
Assay type: in vivo, human
Method: In Tables 21-22, the column labeled “Endpoint” indicates whether the endpoint that was analyzed was the primary endpoint of the CARE study (a composite endpoint of fatal coronary event or nonfatal MI, and identified as “endpt1”) or a composite endpoint of confirmed fatal or nonfatal MI (identified as “rmi”). […] As used herein, the term “benefit” (with respect to a preventive or therapeutic drug treatment) is defined as achieving a reduced risk for a disease that the drug is intended to treat or prevent (e.g., CVD such as CHD, particularly MI, or hypertension) by administering the drug treatment, compared with the risk for the disease in the absence of receiving the drug treatment (or receiving a placebo in lieu of the drug treatment) for the same genotype. […] J. […] (1996) New England Journal of Medicine 335: 1001-1009. […] A well-documented MI was one of the enrollment criteria for entry into the CARE study. Patients were enrolled in the CARE trial from 80 participating study centers. […] For the study of CARE described in this Example and shown in Tables 21-22, two endpoints were investigated: the primary endpoint of CARE (a composite endpoint of fatal coronary event or nonfatal MI, and identified as “endpt1” in the Endpoint column of Tables 21-22) and a composite endpoint of confirmed fatal or nonfatal MI (identified as “rmi” in the Endpoint column of Tables 21-22). […] HR stands for Hazard Ratio, which is a concept similar to Odds Ratio (OR). The HR in event-free survival analysis is the effect of an explanatory variable on the hazard or risk of an event. […] In Table 21, p-interaction values were calculated. An interaction (or effect modification) is formed when a third variable modifies the relation between an exposure and outcome. […] Genotype and drug interaction is present when the effect of statins (incidence rate of disease in statin-treated group, as compared to placebo) differs in patients with different genotypes.

[1] = endpt1, hCV370782 rs9841174 SERPINI2, CC
[2] = endpt1, hCV370782 rs9841174 SERPINI2, CT + TT
[3] = endpt1, hCV795442 rs375947 IL12RB1, AA
[4] = endpt1, hCV795442 rs375947 IL12RB1, GA + GG
[5] = endpt1, hCV818008 rs5918 ITGB3, CC
[6] = endpt1, hCV818008 rs5918 ITGB3, CT + TT
[7] = endpt1, hCV904973 rs7412 APOE, CC
[8] = endpt1, hCV904973 rs7412 APOE, TC + TT
[9] = endpt1, hCV997884 rs512770, AG + GG
[10] = endpt1, hCV2553030 rs11230562 CD6, TC + CC
[11] = endpt1, hCV2553030 rs11230562 CD6, TT
[12] = endpt1, hCV2769554 rs1805010 IL4R, GA + AA
[13] = endpt1, hCV2769554 rs1805010 IL4R, GG
[14] = endpt1, hCV2822674 rs1801222 CUBN, AA
[15] = endpt1, hCV2822674 rs1801222 CUBN, AG + GG
[16] = endpt1, hCV2983036 rs9527025 KL, CC
[17] = endpt1, hCV2983036 rs9527025 KL, CG
[18] = endpt1, hCV2983036 rs9527025 KL, GG
[19] = endpt1, hCV2992252 rs6037651 SIGLEC1, CC
[20] = endpt1, hCV2992252 rs6037651 SIGLEC1, CT + TT
[21] = endpt1, hCV3135085 rs10795446 CUBN, GG
[22] = endpt1, hCV3187716 rs5186 AGTR1, CA + AA
[23] = endpt1, hCV3187716 rs5186 AGTR1, CC
[24] = endpt1, hCV3215409 rs267561 ITGA9, GA + AA
[25] = endpt1, hCV3215409 rs267561 ITGA9, GG
[26] = endpt1, hCV3219460 rs1799983 NOS3, TG + GG
[27] = endpt1, hCV3219460 rs1799983 NOS3, TT
[28] = endpt1, hCV7514870 rs1041981 LTA, AA
[29] = endpt1, hCV7514870 rs1041981 LTA, AC + CC
[30] = endpt1, hCV8705506 rs5516 KLK1, CG + CC
[31] = endpt1, hCV8705506 rs5516 KLK1, GG
[32] = endpt1, hCV8708473 rs1800469 TMEM91, AA
[33] = endpt1, hCV8708473 rs1800469 TMEM91, AG + GG
[34] = endpt1, hCV8708474 rs1800468 MGC4093, CC
[35] = endpt1, hCV8708474 rs1800468 MGC4093, TC + TT
[36] = endpt1, hCV8709053 rs4880 SOD2, GA + AA
[37] = endpt1, hCV8709053 rs4880 SOD2, GG
[38] = endpt1, hCV8718197 rs1050998 CXCL16, AA
[39] = endpt1, hCV8718197 rs1050998 CXCL16, GA + GG
[40] = endpt1, hCV8726337 rs5498 ICAM1, AA
[41] = endpt1, hCV8726337 rs5498 ICAM1, GA + GG
[42] = endpt1, hCV8737990 rs419598 IL1RN, CC
[43] = endpt1, hCV8737990 rs419598 IL1RN, CT + TT
[44] = endpt1, hCV8784787 rs688976, AA
[45] = endpt1, hCV8784787 rs688976, AC + CC
[46] = endpt1, hCV8804621 rs1390938 SLC18A1, AA
[47] = endpt1, hCV8804621 rs1390938 SLC18A1, AG + GG
[48] = endpt1, hCV8848630 rs7192 HLA-DRA, GG
[49] = endpt1, hCV8848630 rs7192 HLA-DRA, TG + TT
[50] = endpt1, hCV8851047 rs45614833 HLA-DPA1, CC

In the case of `CC[C@H](C)C(=O)O[C@H]1C[C@H](O)C=C2C=C[C@H](C)[C@H](CC[C@@H](O)C[C@@H](O)CC(=O)O)[C@H]21` [pravastatin], the “Hazard ratio, Pravastatin vs placebo” value (CARE, SNP hCV11170747, genotype strata in row order) is reported as 0.87, the “EVENTS (Pravastatin arm)” value [1] is reported as 20 and the “NONEVENT (Pravastatin arm)” value [1] is reported as 194. For the same molecule, the “EVENTS (Pravastatin arm)” value [2] was 113, the “NONEVENT (Pravastatin arm)” value [2] was 1097 and the “EVENTS (Pravastatin arm)” value [3] was 52. The “NONEVENT (Pravastatin arm)” value [3] was 599, the “EVENTS (Pravastatin arm)” value [4] was 80 and the “NONEVENT (Pravastatin arm)” value [4] was 691. The “EVENTS (Pravastatin arm)” value [5] was 7, the “NONEVENT (Pravastatin arm)” value [5] was 26 and the “EVENTS (Pravastatin arm)” value [6] was 126. For the same molecule, the “NONEVENT (Pravastatin arm)” value [6] was 1266, the “EVENTS (Pravastatin arm)” value [7] was 114 and the “NONEVENT (Pravastatin arm)” value [7] was 1149. For the same molecule, the “EVENTS (Pravastatin arm)” value [8] was 19, the “NONEVENT (Pravastatin arm)” value [8] was 141 and the “EVENTS (Pravastatin arm)” value (endpt1, hCV997884 rs512770, AA) was 5. For the same molecule, the “NONEVENT (Pravastatin arm)” value (endpt1, hCV997884 rs512770, AA) was 42, the “EVENTS (Pravastatin arm)” value [9] was 126 and the “NONEVENT (Pravastatin arm)” value [9] was 1241. For the same molecule, the “EVENTS (Pravastatin arm)” value [10] was 129, the “NONEVENT (Pravastatin arm)” value [10] was 1179 and the “EVENTS (Pravastatin arm)” value [11] was 3. The “NONEVENT (Pravastatin arm)” value [11] was 107, the “EVENTS (Pravastatin arm)” value [12] was 101 and the “NONEVENT (Pravastatin arm)” value [12] was 1001. For the same molecule, the “EVENTS (Pravastatin arm)” value [13] was 32, the “NONEVENT (Pravastatin arm)” value [13] was 287 and the “EVENTS (Pravastatin arm)” value [14] was 10. The “NONEVENT (Pravastatin arm)” value [14] was 150, the “EVENTS (Pravastatin arm)” value [15] was 123 and the “NONEVENT (Pravastatin arm)” value [15] was 1140. The “EVENTS (Pravastatin arm)” value [16] was 4, the “NONEVENT (Pravastatin arm)” value [16] was 22 and the “EVENTS (Pravastatin arm)” value [17] was 32. For the same molecule, the “NONEVENT (Pravastatin arm)” value [17] was 363, the “EVENTS (Pravastatin arm)” value [18] was 97 and the “NONEVENT (Pravastatin arm)” value [18] was 906. The “EVENTS (Pravastatin arm)” value [19] was 8, the “NONEVENT (Pravastatin arm)” value [19] was 196 and the “EVENTS (Pravastatin arm)” value [20] was 124. The “NONEVENT (Pravastatin arm)” value [20] was 1089, the “EVENTS (Pravastatin arm)” value [21] was 10 and the “NONEVENT (Pravastatin arm)” value [21] was 147. The “EVENTS (Pravastatin arm)” value [22] was 128, the “NONEVENT (Pravastatin arm)” value [22] was 1176 and the “EVENTS (Pravastatin arm)” value [23] was 5. The “NONEVENT (Pravastatin arm)” value [23] was 112, the “EVENTS (Pravastatin arm)” value [24] was 118 and the “NONEVENT (Pravastatin arm)” value [24] was 1057. The “EVENTS (Pravastatin arm)” value [25] was 15, the “NONEVENT (Pravastatin arm)” value [25] was 235 and the “EVENTS (Pravastatin arm)” value [26] was 124. For the same molecule, the “NONEVENT (Pravastatin arm)” value [26] was 1114, the “EVENTS (Pravastatin arm)” value [27] was 9 and the “NONEVENT (Pravastatin arm)” value [27] was 177. For the same molecule, the “EVENTS (Pravastatin arm)” value [28] was 12, the “NONEVENT (Pravastatin arm)” value [28] was 172 and the “EVENTS (Pravastatin arm)” value [29] was 121. The “NONEVENT (Pravastatin arm)” value [29] was 1118, the “EVENTS (Pravastatin arm)” value [30] was 66 and the “NONEVENT (Pravastatin arm)” value [30] was 749. The “EVENTS (Pravastatin arm)” value [31] was 67, the “NONEVENT (Pravastatin arm)” value [31] was 543 and the “EVENTS (Pravastatin arm)” value [32] was 9. The “NONEVENT (Pravastatin arm)” value [32] was 139, the “EVENTS (Pravastatin arm)” value [33] was 124 and the “NONEVENT (Pravastatin arm)” value [33] was 1153. For the same molecule, the “EVENTS (Pravastatin arm)” value [34] was 103, the “NONEVENT (Pravastatin arm)” value [34] was 1068 and the “EVENTS (Pravastatin arm)” value [35] was 30. For the same molecule, the “NONEVENT (Pravastatin arm)” value [35] was 212, the “EVENTS (Pravastatin arm)” value [36] was 105 and the “NONEVENT (Pravastatin arm)” value [36] was 954. For the same molecule, the “EVENTS (Pravastatin arm)” value [37] was 28, the “NONEVENT (Pravastatin arm)” value [37] was 335 and the “EVENTS (Pravastatin arm)” value [38] was 33. For the same molecule, the “NONEVENT (Pravastatin arm)” value [38] was 409, the “EVENTS (Pravastatin arm)” value [39] was 98 and the “NONEVENT (Pravastatin arm)” value [39] was 879. For the same molecule, the “EVENTS (Pravastatin arm)” value [40] was 31, the “NONEVENT (Pravastatin arm)” value [40] was 430 and the “EVENTS (Pravastatin arm)” value [41] was 102. The “NONEVENT (Pravastatin arm)” value [41] was 857, the “EVENTS (Pravastatin arm)” value [42] was 15 and the “NONEVENT (Pravastatin arm)” value [42] was 96. For the same molecule, the “EVENTS (Pravastatin arm)” value [43] was 117, the “NONEVENT (Pravastatin arm)” value [43] was 1193 and the “EVENTS (Pravastatin arm)” value [44] was 6. For the same molecule, the “NONEVENT (Pravastatin arm)” value [44] was 57, the “EVENTS (Pravastatin arm)” value [45] was 126 and the “NONEVENT (Pravastatin arm)” value [45] was 1234. For the same molecule, the “EVENTS (Pravastatin arm)” value [46] was 8, the “NONEVENT (Pravastatin arm)” value [46] was 69 and the “EVENTS (Pravastatin arm)” value [47] was 125. The “NONEVENT (Pravastatin arm)” value [47] was 1218, the “EVENTS (Pravastatin arm)” value [48] was 59 and the “NONEVENT (Pravastatin arm)” value [48] was 485. The “EVENTS (Pravastatin arm)” value [49] was 74, the “NONEVENT (Pravastatin arm)” value [49] was 802 and the “EVENTS (Pravastatin arm)” value [50] was 7. The “NONEVENT (Pravastatin arm)” value [50] was 32 and the “EVENTS (Pravastatin arm)” value (endpt1, hCV8851047 rs45614833 HLA-DPA1, CT + TT) was 126.
